ChEMBL document CHEMBL1201862, “PubChem BioAssay data set” (2004)
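These data come from cells grown in 96-well plates and exposed to compound for 48 hours at five concentrations. GI50 = concentration required for 50% inhibition of growth.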 The source made the active and inactive calls. Cut-off read from the data, not from the text of the source: active = GI50 up to about 1.1 µM and inactive = higher.

Columns and labels:
Test in all cases: NCI-60 cell line screen, 48 h
[1] = test system: 786-0
[2] = test system: A498
[3] = test system: A549
[4] = test system: ACHN
[5] = test system: CAKI-1
[6] = test system: CCRF-CEM
[7] = test system: COLO 205
[8] = test system: DLD-1
[9] = test system: DMS-114
[10] = test system: EKVX
[11] = test system: HCC 2998
[12] = test system: HCT-116
[13] = test system: HCT-15
[14] = test system: HL-60
[15] = test system: HOP-18
[16] = test system: HOP-62
[17] = test system: HOP-92
[18] = test system: HT-29
[19] = test system: IGROV-1
[20] = test system: K562
[21] = test system: KM-20L2
[22] = test system: KM12
[23] = test system: LOX IMVI
[24] = test system: LXFL 529
[25] = test system: M14
[26] = test system: M19-MEL
[27] = test system: MOLT-4
[28] = test system: Malme-3M
[29] = test system: NCI-H226
[30] = test system: NCI-H23
[31] = test system: NCI-H460
[32] = test system: OVCAR-3
[33] = test system: OVCAR-4
[34] = test system: OVCAR-5
[35] = test system: OVCAR-8
[36] = test system: RPMI-8226
[37] = test system: RXF 393
[38] = test system: SF-268
[39] = test system: SF-295
[40] = test system: SF-539
[41] = test system: SK-MEL-28
[42] = test system: SK-MEL-2
[43] = test system: SK-MEL-5
[44] = test system: SK-OV-3
[45] = test system: SN12C
[46] = test system: SNB-19
[47] = test system: SNB-75
[48] = test system: SNB-78
[49] = test system: SW-620
[50] = test system: TK-10
[51] = test system: UACC-257
[52] = test system: UACC-62
[53] = test system: UO-31
[54] = test system: XF498
[55] = test system: DMS-273
[56] = test system: MCF7
[57] = test system: NCI-H522
[58] = test system: NCI/ADR-RES
[59] = test system: U-251

CC(=O)OC1CC2C(C)(C)C(=O)C=C[C@]2(C)C2CCC3(C)C(=CC(=O)C3c3ccoc3)[C@]12C (some centres not stated)
GI50 [1]: 15.5 µM (inactive) | GI50 [2]: 16.9 µM (inactive) | GI50 [3]: 15.1 µM (inactive) | GI50 [4]: 16.2 µM (inactive) | GI50 [5]: 24.7 µM (inactive) | GI50 [6]: 8.47 µM (inactive) | GI50 [7]: 16.9 µM (inactive) | GI50 [8]: 12.4 µM (inactive) | GI50 [9]: 10 µM (inactive) | GI50 [10]: 15.7 µM (inactive) | GI50 [11]: 12.3 µM (inactive) | GI50 [12]: 11.6 µM (inactive) | GI50 [13]: 11.7 µM | GI50 [14]: 14.3 µM (inactive) | GI50 [15]: 18.4 µM (inactive) | GI50 [16]: 16.3 µM (inactive) | GI50 [17]: 19.9 µM (inactive) | GI50 [18]: 13.5 µM (inactive) | GI50 [19]: 16.6 µM (inactive) | GI50 [20]: 9.55 µM (inactive) | GI50 [21]: 14.7 µM (inactive) | GI50 [22]: 11.9 µM (inactive) | GI50 [23]: 14.8 µM (inactive) | GI50 [24]: 24 µM (inactive) | GI50 [25]: 21 µM (inactive) | GI50 [26]: 16 µM (inactive) | GI50 [27]: 13.2 µM (inactive) | GI50 [28]: 17.5 µM (inactive) | GI50 [29]: 17.8 µM (inactive) | GI50 [30]: 12.7 µM (inactive) | GI50 [31]: 11.4 µM (inactive) | GI50 [32]: 11.5 µM (inactive) | GI50 [33]: 18.4 µM (inactive) | GI50 [34]: 22.4 µM (inactive) | GI50 [35]: 16.7 µM (inactive) | GI50 [36]: 14.9 µM (inactive) | GI50 [37]: 2.3 µM (inactive) | GI50 [38]: 15.6 µM (inactive) | GI50 [39]: 15.2 µM (inactive) | GI50 [40]: 16.9 µM (inactive) | GI50 [41]: 15.9 µM (inactive) | GI50 [42]: 17.9 µM (inactive) | GI50 [43]: 13.1 µM (inactive) | GI50 [44]: 20.7 µM (inactive) | GI50 [45]: 16.7 µM (inactive) | GI50 [46]: 15.6 µM (inactive) | GI50 [47]: 12.5 µM (inactive) | GI50 [48]: 31.4 µM (inactive) | GI50 [49]: 10.5 µM (inactive) | GI50 [50]: 15.7 µM (inactive) | GI50 [51]: 17.4 µM (inactive) | GI50 [52]: 13 µM (inactive) | GI50 [53]: 18.9 µM (inactive) | GI50 [54]: 25.8 µM (inactive)

c1cc2c3c(c1)c1cc4c(cc1c[n+]3CC2)OCO4 [ANHYDROLYCORINIUM CHLORIDE]
GI50 [2]: 2.37 µM (inactive) | GI50 [3]: 1.15 µM (inactive) | GI50 [5]: 12.5 µM (inactive) | GI50 [6]: 3.35 µM (inactive) | GI50 [7]: 2.74 µM (inactive) | GI50 [8]: 8.83 µM (inactive) | GI50 [9]: 2.45 µM (inactive) | GI50 [55]: 4.42 µM (inactive) | GI50 [10]: 3.4 µM (inactive) | GI50 [11]: 2.75 µM (inactive) | GI50 [12]: 2.81 µM (inactive) | GI50 [13]: > 164 µM | GI50 [14]: 6.3 µM (inactive) | GI50 [15]: 9.79 µM (inactive) | GI50 [16]: 3.83 µM (inactive) | GI50 [17]: 25.3 µM (inactive) | GI50 [18]: 7.4 µM (inactive) | GI50 [19]: 4.02 µM (inactive) | GI50 [20]: 4.47 µM (inactive) | GI50 [21]: 3.56 µM (inactive) | GI50 [22]: 0.582 µM (active) | GI50 [23]: 25.5 µM (inactive) | GI50 [26]: 1.33 µM (inactive) | GI50 [56]: 6.25 µM (inactive) | GI50 [27]: 1.25 µM (inactive) | GI50 [28]: 0.871 µM (active) | GI50 [29]: 1.25 µM (inactive) | GI50 [30]: 3.59 µM (inactive) | GI50 [31]: 3.73 µM (inactive) | GI50 [57]: 2.3 µM (inactive) | GI50 [58]: > 225 µM (inactive) | GI50 [32]: 3.4 µM (inactive) | GI50 [33]: 0.383 µM (active) | GI50 [34]: 2.85 µM (inactive) | GI50 [35]: 1.33 µM (inactive) | GI50 [36]: 2.14 µM (inactive) | GI50 [37]: 6.12 µM (inactive) | GI50 [38]: 0.618 µM (active) | GI50 [39]: 0.802 µM (active) | GI50 [40]: 2.48 µM (inactive) | GI50 [41]: 4.82 µM (inactive) | GI50 [42]: 4.26 µM (inactive) | GI50 [43]: 3.79 µM (inactive) | GI50 [44]: 10.2 µM (inactive) | GI50 [45]: 1.99 µM (inactive) | GI50 [46]: 1.17 µM (inactive) | GI50 [47]: 2.44 µM (inactive) | GI50 [48]: 4.06 µM (inactive) | GI50 [49]: 1.9 µM (inactive) | GI50 [59]: 0.811 µM (active) | GI50 [51]: 5.28 µM (inactive) | GI50 [52]: 5.85 µM (inactive) | GI50 [53]: > 127 µM (inactive) | GI50 [54]: 4.14 µM (inactive)

CCCCCCCCCCCCCCCCCCOCC(O)CO (configuration not stated) [BATILOL]
GI50 [2]: 3.61 µM (inactive) | GI50 [3]: 4.32 µM (inactive) | GI50 [5]: 3.57 µM (inactive) | GI50 [6]: 10.7 µM (inactive) | GI50 [7]: > 25 µM (inactive) | GI50 [8]: > 25 µM (inactive) | GI50 [9]: 18 µM (inactive) | GI50 [55]: > 5.93 µM (inactive) | GI50 [10]: > 14.1 µM (inactive) | GI50 [11]: 12.4 µM (inactive) | GI50 [12]: > 25 µM (inactive) | GI50 [13]: > 25 µM | GI50 [14]: 10.5 µM (inactive) | GI50 [15]: 0.61 µM (active) | GI50 [16]: 14 µM (inactive) | GI50 [17]: 11.7 µM (inactive) | GI50 [18]: 14.5 µM (inactive) | GI50 [19]: 13.6 µM (inactive) | GI50 [20]: > 22.4 µM (inactive) | GI50 [21]: 19.1 µM (inactive) | GI50 [22]: 21.6 µM (inactive) | GI50 [23]: > 21.9 µM (inactive) | GI50 [26]: 12 µM (inactive) | GI50 [56]: > 25 µM (inactive) | GI50 [27]: 17.2 µM (inactive) | GI50 [28]: > 11.1 µM (inactive) | GI50 [29]: > 21.6 µM (inactive) | GI50 [30]: > 25 µM (inactive) | GI50 [31]: > 20.2 µM (inactive) | GI50 [57]: 9.18 µM (inactive) | GI50 [58]: > 25 µM (inactive) | GI50 [32]: > 23.9 µM (inactive) | GI50 [33]: 21.9 µM (inactive) | GI50 [34]: > 25 µM (inactive) | GI50 [35]: > 25 µM (inactive) | GI50 [36]: 4.9 µM (inactive) | GI50 [37]: 16.7 µM (inactive) | GI50 [38]: > 25 µM (inactive) | GI50 [39]: 18.6 µM (inactive) | GI50 [40]: > 25 µM (inactive) | GI50 [41]: > 25 µM (inactive) | GI50 [42]: > 24.2 µM (inactive) | GI50 [43]: 2.07 µM (inactive) | GI50 [44]: > 23.5 µM (inactive) | GI50 [45]: > 25 µM (inactive) | GI50 [46]: > 25 µM (inactive) | GI50 [47]: 9.48 µM (inactive) | GI50 [48]: > 25 µM (inactive) | GI50 [49]: > 17 µM (inactive) | GI50 [59]: > 25 µM (inactive) | GI50 [51]: > 23.9 µM (inactive) | GI50 [52]: 21.7 µM (inactive) | GI50 [53]: 12.5 µM (inactive) | GI50 [54]: 15.5 µM (inactive)
